Data taken from patent publication US4978751A, “Low-calorie sweeteners of fructosyl oligosaccharides and the food or dietetic products or drinks containing them” (Roussel-Ulcaf, priority 1988, dated 1990).

What was measured:
[1] = tested on: alpha amylase of human saliva; assay: Hydrolysis test with alpha amylase of human saliva; assay type: in vitro ADME; conditions: substrate 3 g/liter, pH 7.0, 17.8 units enzyme, 2 hours at 37° C.
Experimental: After 2 hours, the reaction is stopped by heating.

[2] = tested on: alpha amylase from the pancreas of a pig; assay: Hydrolysis test with alpha amylase of the pancreas of a pig; conditions: substrate 3 g/liter, pH 7.0, 19 units enzyme, 2 hours at 37° C.
Experimental: The product is then dissolved is a 0.1M sodium phosphate buffer, (pH 7.0), so as to obtain a final concentration of 3 g/liter of fructosyl oligosaccharide. A mixture containing 2 ml of fructosyl oligosaccharide solution (prepared as above in 1.1) and 19 units of alpha amylase from the pancreas of a pig (SIGMA Ref […]) is incubated for 2 hours at 37° C. The reaction is stopped by heating. The glucose which has appeared is measured by the enzymatic method with glucose oxidase/peroxidase (Boehringer test Ref. 124036). A control test is carried out with maltodextrins, type glucidex 21 (Societe Roquette, France). The results are given in micromoles of glucose formed per enzyme unit and per hour.

in vitro [3] = assay type: in vitro ADME; conditions: rat, jejunum homogenate, pH 6
Experimental: (§1) Then the products are dissolved in a 0.05M sodium phosphate (buffer pH 6.0), so as to have a molar concentration of […]. […] The reaction mixture containing 2 ml of fructosyl oligosaccharide solution and 2 ml of homogenate is incubated for 24 hours at 37° C., under magnetic agitation. Samples are taken at regular intervals, and the intestinal enzymes are thermally inactivated. A parallel test is carried out on a control solution containing saccharose.

[4] = tested on: homogenate of the jejunum of a rat; assay: in vitro; assay type: in vitro ADME; conditions: 0 min, pH 6
Experimental: as §1

in vitro [5] = conditions: rat, jejunum homogenate, pH 6
Experimental: (§2) 5 cm of jejunum is removed from a male Sprague Dawley rat (previously put on a diet for 25 hours) and rinsed with a solution of physiological serum.
(§3) The jejunum (weighing about 150 mg) is pulverized in the presence of 0.9% NaCl (w/v) using a "Polytron" type homogenizer then the pulverized product is brought to 10 ml (with 0.9% NaCl solution).
(§4) The reaction mixture containing 2 ml of fructosyl oligosaccharide solution and 2 ml of homogenate is incubated for 24 hours at 37° C., under magnetic agitation.
(§5) In a second series of tests, the evolution of the composition of the fructosyl oligosaccharide is followed over a period of time by inverse plane HPLC (Nucleosil C18 column--eluent: water), the control sugar still being saccharose.

[6] = tested on: homogenate of the jejunum of a rat; assay: in vitro; conditions: 0 min, pH 6
Experimental: as §2, §3, §4, §5

in vitro [7] = assay type: in vitro ADME; conditions: human, jejunal mucous homogenate
Experimental: (§6) The preparation is identical to that given in Example 2, paragraph 2.1. The jejunal mucous (about 40 mg) is homogenized in the presence of a 0.9% aqueous solution of NaCl (weight/volume) using a "Polytron" type homogenizer. The homogenate is then brought to 12 ml (with the 0.9% solution of NaCl). The reaction mixture containing 2 ml of fructosyl oligosaccharide solution and 2 ml of homogenate is incubated for 24 hours at 37° C. under magnetic agitation. Samples are taken at regular intervals and the intestinal enzymes are thermally inactivated. A parallel test is carried out on a control solution containing saccharose. […] [formula]

[8] = tested on: homogenate of human jejunal mucous; assay: in vitro; assay type: in vitro ADME; conditions: 0 min
Experimental: as §6

Row | Structure (SMILES) | Activity of the alpha amylase of human saliva [1] | Activity of the alpha amylase from the pancreas of a pig [2] | metabolised at 8.5 h (in vitro [3]) [%] | metabolised at 17.5 h (in vitro [3]) [%] | metabolised at 24 h (in vitro [3]) [%] | DH % (degree of hydrolysis) [4] [%] | remaining at 8.5 h (in vitro [5]) [%] | remaining at 24 h (in vitro [5]) [%] | Composition in carbohydrate %: Cellobiofructose [6] [%] | metabolised at 10 h (in vitro [7]) [%] | metabolised at 24 h (in vitro [7]) [%] | DH % (degree of hydrolysis) [8] [%] | Composition in carbohydrate %: Gentiobiofructose [6] [%] | Composition in carbohydrate %: Saccharose [6] [%]
1 | OC[C@H]1O[C@@](CO)(O[C@H]2O[C@H](CO)[C@@H](O[C@@H]3O[C@H](CO)[C@@H](O)[C@H](O)[C@H]3O)[C@H](O)[C@H]2O)[C@@H](O)[C@@H]1O [Cellobiofructose, cellobiofructose] | 0 micromoles of glucose formed p | 0 micromoles of glucose formed p | 0 | 3.7 | 5.4 | 0 | 97 | 93.6 | 100 | 0 | 0 | 0 |  | 
2 | OC[C@H]1O[C@@](CO)(O[C@H]2O[C@H](CO[C@@H]3O[C@H](CO)[C@@H](O)[C@H](O)[C@H]3O)[C@@H](O)[C@H](O)[C@H]2O)[C@@H](O)[C@@H]1O [Gentiobiofructose, gentiobiofructose] | 0 micromoles of glucose formed p | 0 micromoles of glucose formed p | 0 | 0.4 | 0.4 | 0 | 100 | 99.6 |  | 0 | 0 | 0 | 100 | 
3 | OC[C@H]1O[C@@](CO)(O[C@H]2O[C@H](CO)[C@@H](O)[C@H](O)[C@H]2O)[C@@H](O)[C@@H]1O [Saccharose, saccharose, reference compound] |  |  | 57.6 | 66.7 | 92.7 | 0 |  | 4 |  | 57.1 | 88 | 0 |  | 100
